In patent publication US9128081B2, “TDP-43-storing cell model” (TOKYO METROPOLITAN INSTITUTE OF MEDICAL SCIENCE, priority 2008, dated 2015):
Entries after “also recorded” stand apart in the source; their conditions may differ. Where a SMILES comes first, the peptide text is derived from it. The star is where a group is joined. Cbz = O=C(OCc1ccccc1)*

Key:
Format in all cases: cell-based, human
[1] = test system: SH-SY5Y cells expressing pcDNA3-TDP delta NLS1&2 (TDP delta NLS1&2); assay: Suppression of formation of intracellular TDP-43 inclusions by low-molecular compounds (TDP delta NLS1&2); conditions: enhanced concentration-dependently, 3 days after addition
Method: (§1) The cell used was human neuroblast cell line SH-SY5Y, while pEGFP-TDP 162-414 (GFP-TDP 162-414) and pcDNA3-TDP delta NLS1&2 (TDP delta NLS1&2) which gave more significant formation of intracellular inclusions among various TDP-43 mutants were used to search for an inhibitor for the above-described inclusion formation.
(§2) Gene transfection into SH-SY5Y cell was carried out according to the method described in “Cultivation of SH-SY5Y cell and integration of plasmid vector” above, where 1 μg of each of the various plasmids was transfected into the cell with three-fold volume of a transfection reagent (FuGENE6: 3 μl).
(§3) Treatment with a candidate inhibitor took place two hours after gene transfection. […] The concentrations of methylene blue were determined to take the above concentrations by considering the concentration conditions that have no damage on cell proliferation. On the other hand, the concentrations of dimebon were determined by referring to a publication (Jun Wu et al., Molecular Neurodegeneration, 2008, vol. 3, p. 15), and the preparation method (suspension in sterile water) was carried out according to the instruction provided by the reagent supplier. […]
Fluorescence-Labeled Secondary Antibody: • Fluorescein isothiocyanate (FITC)-labeled anti-rabbit IgG (Sigma, 1:500 dilution) • Alexa-568-labeled anti-mouse IgG (1:500 dilution) […]

[2] = test system: SH-SY5Y cells expressing pEGFP-TDP 162-414 (GFP-TDP 162-414); assay: Suppression of formation of intracellular TDP-43 inclusions by low-molecular compounds (GFP-TDP 162-414); conditions: enhanced concentration-dependently, 3 days after addition
Method: as §1, §2
as §3, with “transfection. As candidate inhibitors, methylene blue and dimebon were examined.” for “transfection.”
Fluorescence-Labeled Secondary Antibody: • Alexa-568-labeled anti-mouse IgG (1:500 dilution) […]

[3] = test system: SH-SY5Y cells expressing NLS2-deficient mutant TDP-43; assay: Protease inhibitor treatment of NLS2-deficient mutant-expressing cells, confocal laser microscope; conditions: inhibitor 20 μM, 6 hours; for inclusion formation / expression pattern, anti-TARDBP staining: 37° C.
Method: (§4) Each of the above-described various plasmid vectors (pcDNA3 or pEGFP system, 1 μg) was integrated into SH-SY5Y cell using FuGENE6 transfection reagent (Roche Diagnostics). FuGENE6 at 3-fold volume of the total plasmid amount was mixed with the plasmid, left to stand at room temperature for 15 minutes, and then mixed with the cell solution. The resultant was cultured for 2-3 days, and used for preparation of cell lysates or immunohistological staining.
(§5) SH-SY5Y cells cultured on glass covers were mixed with each of the various expression vectors (1 μg) and added in the presence of FuGENE6. After two days of cultivation, cell immobilization or protease inhibitor treatment was carried out. In the protease inhibitor treatment, a final concentration of 20 μM of MG132 (proteasome inhibitor) or carbobenzoxy-leucyl-leucinal (zLL: calpain inhibitor) was added to the cell, and cultured at 37° C. for 6 hours. Thereafter, the cell was immobilized in a 4% paraformaldehyde solution. […] After washing with 50 mM Tris-HCl containing 0.05% Tween 20 and 150 mM NaCl (pH 7.5) (TBS-T), the cell was caused to react with a fluorescence-labeled secondary antibody at 37° C. for an hour. […] The resultant was sealed on a glass slide, and then analyzed with a confocal laser microscope (Carl Zeiss).
(§6) The primary antibody and the fluorescence-labeled secondary antibody used were as follows. • Primary antibody: • anti-TARDBP (ProteinTech, 1:1000 dilution); • anti-pS409/410 (antibody (antibody that specifically binds to TDP-43 aggregates) obtained by using, as an antigen, a peptide in which Ser residues at positions 409 and 410 of TDP-43 are both phosphorylated, 1:500 dilution); • anti-ubiquitin (MAB1510, CHEMICON, 1:500 dilution) • Fluorescence-labeled secondary antibody: • FITC-labeled anti-rabbit IgG (anti-rabbit immunoglobulin, FITC-labeled, Product number: F9887, Sigma, 1:500 dilution); • rhodamine-labeled anti-mouse IgG (anti-mouse immunoglobulin, TRITC-labeled, Product number: T2402, Sigma, 1:500 dilution) […]

[4] = test system: SH-SY5Y cells expressing NLS1-deficient mutant TDP-43; assay: Protease inhibitor treatment of NLS1-deficient mutant-expressing cells, confocal laser microscope; conditions: inhibitor 20 μM, 6 hours; for inclusion formation, anti-pS409/410 staining: inclusion diameter about 10 μm
Method: as §4, §5, §6

[5] = test system: SH-SY5Y cells expressing wild-type TDP-43; assay: Protease inhibitor treatment of wild-type TDP-43-expressing cells, confocal laser microscope; conditions: inhibitor 20 μM, 37° C., 6 hours
Method: as §4
as §5, with “Zeiss). […]” for “Zeiss).”

[6] = methylene blue 0.05 μM, FIGS. 19 and 20

## Cc1ccc2c(c1)c1c(n2CCc2ccc(C)nc2)CCN(C)C1 [dimebon]
[1]; dimebon 20 μM, FIGS. 21 and 22
  inhibition effect on formation of intracellular TDP-43 inclusions: inhibition effect of dimebon was also confirmed
[2]; dimebon 20 μM, FIGS. 21 and 22
  inhibition effect on formation of intracellular TDP-43 inclusions: inhibition effect of dimebon was also confirmed

## CC(C)C[C@@H](C=O)NC(=O)[C@H](CC(C)C)NC(=O)OCc1ccccc1 [zLL, carbobenzoxy-leucyl-leucinal]
[3]
  inclusion formation / expression pattern, anti-TARDBP staining: no particular change was found in the expression pattern
[4]
  inclusion formation, anti-pS409/410 staining: no intracellular inclusion was observed

## CC(C)C[C@@H](C=O)NC(=O)[C@H](CC(C)C)NC(=O)[C@H](CC(C)C)NC(=O)OCc1ccccc1 [MG132] (Cbz-Leu-Leu-Leu-aldehyde)
[3]
  inclusion formation / expression pattern, anti-TARDBP staining: inclusions were found in the nucleus
[3]; inclusion diameter about 10 μm
  inclusion formation, anti-pS409/410 and anti-ubiquitin staining: emergence of intranuclear inclusions positive to both anti-pS409/410 and anti-ubiquitin
[4]; 37° C.
  inclusion formation, anti-TARDBP staining: did not show significant difference from MG132-free cases; also recorded: cytoplasmic inclusions were not observed
[4]
  inclusion formation, anti-pS409/410 staining: anti-pS409/410-positive cytoplasmic inclusions were observed
[5]
  inclusion formation, anti-TARDBP staining: did not show significant difference from MG132-free cases

## CN(C)c1ccc2nc3ccc(=[N+](C)C)cc-3sc2c1 [methylene blue]
[1]; [6]
  inhibition effect on formation of intracellular TDP-43 inclusions: inhibition effect of methylene blue was confirmed
[2]; [6]
  inhibition effect on formation of intracellular TDP-43 inclusions: inhibition effect of methylene blue was confirmed
